In PubChem BioAssay AID2060617 (Molecular Pharmacology Branch, DTP, NCI, 2025):

Tested on: 485368-065-R4-J2-PDC spheroids with HUVEC/MSC, viability
Test: Anticancer human tumor 485368-065-R4-J2-PDC patient-derived pancreatic carcinoma cell line growth inhibition [CLK]
Details: for IC50: curve of first compound; for viability, T/C: stronger effect = lower value
From the text: A high-throughput screen of multi-cell type tumor spheroids was designed to identify active combinations of […] and targeted small molecules. Complex spheroids include a stromal component modeled by human endothelial cells (HUVEC) and fibroblasts modeled by human mesenchymal stem cells (MSCs). The concentration ranges selected for each drug and investigational agent were based upon clinically achievable concentrations if the clinical Cmax of the agent was known.
Compounds. The drugs and investigational agents: cirtuvivint (SM08502; NSC835563), CC-671 (NSC850746), vemurafenib (NSC761431), tapotoclax (NSC804041), sotorasib (NSC818433), adagrasib (NSC831453), MRTX-1133 (NSC836407), BAY2416964 (NSC825713), copanlisib (NSC816437), inavolisib (NSC800729), abemaciclib (NSC768073), osimertinib (NSC779217), entinostat (NSC756642), eltanexor (KPT-8602, NSC794443), venetoclax (NSC766270), ceralasertib (NSC777638), bortezomib (NSC756655), olaparib (NSC753686), talazoparib (NSC767125), alisertib (NSC759677), peposertib (NSC802822), gemcitabine (NSC613327), 5-fluorouracil (NSC19893), SN-38 (NSC673596), oxaliplatin (NSC266046), paclitaxel (NSC125973), and doxorubicin (NSC123127), were obtained from the National Cancer Institute (NCI) Developmental Therapeutics Program Chemical Repository. The FDA-approved anticancer drug set is available from the Developmental Therapeutics Program at https://dtp.cancer.gov/organization/dscb/obtaining/available plates.htm. […] The stock solutions were prepared in dimethyl sulfoxide (DMSO, Sigma-Aldrich, St. Louis, MO, cat. D2650), except for the platinum complexes which were prepared in saline (Quality Biological, Gaithersburg, MD, cat. 114-055-101), at 800-fold the tested concentration and stored at -70 degrees C prior to their use. All drugs and investigational agents were tested over a range starting from a high concentration at or near the clinical Cmax and decreasing in half-log increments. If the clinical Cmax for an agent had not been determined, the highest concentration tested was 10 microM.
Cell Culture. All cells were maintained in an incubator at 37 degrees C and 5% CO2 with 95% humidity. The PDC lines were cultured according to standard operating procedures established by the NCI PDMR. Briefly, all PDCs were thawed and cultured in Matrigel-coated flasks prepared with a working solution of 1X Ham's F-12 nutrient mix, without supplementation (Invitrogen, Waltham, MA, cat. 11765054), 100 U/mL penicillin-streptomycin (Invitrogen, cat. 15140122), and 2.5% Matrigel (Corning Inc., Corning, NY, cat. 354248) for the first three passages. The 947758-054-R-J2-PDC line was cultured in 6B/Colon 1A media, which includes advanced DMEM/F-12 (Thermo Fisher Scientific, cat. 12634028), 10 mM HEPES (Thermo Fisher Scientific, cat. 15630080), 1X GlutaMAX supplement (Thermo Fisher Scientific, cat. 35050061), 0.1 mg/mL primocin (InvivoGen, cat. ant-pm-2), 10% defined fetal bovine serum, heat inactivated (HyClone Laboratories Inc., cat. SH30070.03HI), 1.25 mM N-Acetyl-L-cysteine (Sigma-Aldrich, cat. A9165), 10 mM nicotinamide (Sigma-Aldrich, cat. N0636), 1X B-27 supplement (Thermo Fisher Scientific, cat. 17504044), 1X N-2 supplement (Thermo Fisher Scientific, cat. 17502048), and 10 microM Y-27632 dihydrochloride (Tocris Bioscience, cat. 1254). The 876862-298-R-J1-PDC was cultured in 6E media, which includes all 6B/Colon 1A media components plus 50% L-WRN conditioned media (ATCC, cat. CRL-3276), 50 ng/mL recombinant human EGF recombinant protein (hEGF; Thermo Fisher Scientific, cat. PHG0311), 10 ng/mL recombinant human fibroblast growth factor 10 (hGFG-10; PeproTech, cat. 100-26), 1 ng/mL recombinant human fibroblast growth factor 2 (hFGF-2; PeproTech, cat. 100-18B), and 1 µM prostaglandin E2 (PGE2; Tocris, cat. 2296). The 227483-062-R1-J1-PDC line was cultured in Panc media, containing all 6E components except hFGF-2, with the addition of 500 nM SB-431542 (Selleckchem, cat. S1067) and 10 nM gastrin (Tocris, cat. 3006). […]
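Further: spheroids exposed to compounds for seven days.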
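Wherever viability, T/C is given: 100% = DMSO vehicle control wells.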

Structure (SMILES): CC(C)CC(NC(=O)C(Cc1ccccc1)NC(=O)c1cnccn1)B(O)O (centres undefined) + CNC(=O)c1ccc(Nc2nc(OC3CCCC3)c3c(-c4ccc5nc(C)oc5c4)c[nH]c3n2)c(OC)c1
- IC50 (second compound 0.0316 µM): 7.22 nM
- IC50 (second compound 0.1 µM): 7.19 nM
- IC50 (second compound 0.316 µM): 7.21 nM
- IC50 (second compound 1 µM): 6.69 nM
- IC50 (second compound 3.16 µM): 5.66 nM
- IC50 (second compound 10 µM): 4.91 nM
- viability, T/C (second compound 0.0316 µM, first compound 0.000949 µM): 99.6%
- viability, T/C (second compound 0.0316 µM, first compound 0.003 µM): 122%
- viability, T/C (second compound 0.0316 µM, first compound 0.00949 µM): 31.1%
- viability, T/C (second compound 0.0316 µM, first compound 0.03 µM): 16.4%
- viability, T/C (second compound 0.0316 µM, first compound 0.0949 µM): 13.2%
- viability, T/C (second compound 0.0316 µM, first compound 0.3 µM): 3.24%
- viability, T/C (second compound 0.1 µM, first compound 0.000949 µM): 95.3%
- viability, T/C (second compound 0.1 µM, first compound 0.003 µM): 115%
- viability, T/C (second compound 0.1 µM, first compound 0.00949 µM): 32.5%
- viability, T/C (second compound 0.1 µM, first compound 0.03 µM): 13.6%
- viability, T/C (second compound 0.1 µM, first compound 0.0949 µM): 11.8%
- viability, T/C (second compound 0.1 µM, first compound 0.3 µM): 3.58%
- viability, T/C (second compound 0.316 µM, first compound 0.000949 µM): 94.3%
- viability, T/C (second compound 0.316 µM, first compound 0.003 µM): 112%
- viability, T/C (second compound 0.316 µM, first compound 0.00949 µM): 33.4%
- viability, T/C (second compound 0.316 µM, first compound 0.03 µM): 12.5%
- viability, T/C (second compound 0.316 µM, first compound 0.0949 µM): 10.1%
- viability, T/C (second compound 0.316 µM, first compound 0.3 µM): 3.9%
- viability, T/C (second compound 1 µM, first compound 0.000949 µM): 102%
- viability, T/C (second compound 1 µM, first compound 0.003 µM): 101%
- viability, T/C (second compound 1 µM, first compound 0.00949 µM): 28%
- viability, T/C (second compound 1 µM, first compound 0.03 µM): 12.9%
- viability, T/C (second compound 1 µM, first compound 0.0949 µM): 7.65%
- viability, T/C (second compound 1 µM, first compound 0.3 µM): 1.74%
- viability, T/C (second compound 3.16 µM, first compound 0.000949 µM): 89.4%
- viability, T/C (second compound 3.16 µM, first compound 0.003 µM): 89.7%
- viability, T/C (second compound 3.16 µM, first compound 0.00949 µM): 17.9%
- viability, T/C (second compound 3.16 µM, first compound 0.03 µM): 7.21%
- viability, T/C (second compound 3.16 µM, first compound 0.0949 µM): 5.69%
- viability, T/C (second compound 3.16 µM, first compound 0.3 µM): 2.56%
- viability, T/C (second compound 10 µM, first compound 0.000949 µM): 77.9%
- viability, T/C (second compound 10 µM, first compound 0.003 µM): 78.2%
- viability, T/C (second compound 10 µM, first compound 0.00949 µM): 12.5%
- viability, T/C (second compound 10 µM, first compound 0.03 µM): 5.34%
- viability, T/C (second compound 10 µM, first compound 0.0949 µM): 4.07%
- viability, T/C (second compound 10 µM, first compound 0.3 µM): 1.36%

Structure (SMILES): CCCS(=O)(=O)Nc1ccc(F)c(C(=O)c2c[nH]c3ncc(-c4ccc(Cl)cc4)cc23)c1F + CN1CCN(c2cc(C(=O)Nc3cc4cc(-c5cnn(C)c5)ccc4cn3)ccn2)CC1
- IC50 (second compound 0.0316 µM): > 10000 nM
- IC50 (second compound 0.1 µM): > 10000 nM
- IC50 (second compound 0.316 µM): > 10000 nM
- IC50 (second compound 1 µM): < 31.6 nM
- IC50 (second compound 3.16 µM): < 31.6 nM
- IC50 (second compound 10 µM): < 31.6 nM
- viability, T/C (second compound 0.0316 µM, first compound 0.0316 µM): 112%
- viability, T/C (second compound 0.0316 µM, first compound 0.1 µM): 98.8%
- viability, T/C (second compound 0.0316 µM, first compound 0.316 µM): 98.3%
- viability, T/C (second compound 0.0316 µM, first compound 1 µM): 111%
- viability, T/C (second compound 0.0316 µM, first compound 3.16 µM): 93.8%
- viability, T/C (second compound 0.0316 µM, first compound 10 µM): 111%
- viability, T/C (second compound 0.1 µM, first compound 0.0316 µM): 105%
- viability, T/C (second compound 0.1 µM, first compound 0.1 µM): 112%
- viability, T/C (second compound 0.1 µM, first compound 0.316 µM): 103%
- viability, T/C (second compound 0.1 µM, first compound 1 µM): 103%
- viability, T/C (second compound 0.1 µM, first compound 3.16 µM): 96.5%
- viability, T/C (second compound 0.1 µM, first compound 10 µM): 94.5%
- viability, T/C (second compound 0.316 µM, first compound 0.0316 µM): 84.1%
- viability, T/C (second compound 0.316 µM, first compound 0.1 µM): 99.5%
- viability, T/C (second compound 0.316 µM, first compound 0.316 µM): 102%
- viability, T/C (second compound 0.316 µM, first compound 1 µM): 96.2%
- viability, T/C (second compound 0.316 µM, first compound 3.16 µM): 97.9%
- viability, T/C (second compound 0.316 µM, first compound 10 µM): 64.2%
- viability, T/C (second compound 1 µM, first compound 0.0316 µM): 0.91%
- viability, T/C (second compound 1 µM, first compound 0.1 µM): 2.34%
- viability, T/C (second compound 1 µM, first compound 0.316 µM): 4.24%
- viability, T/C (second compound 1 µM, first compound 1 µM): 1.9%
- viability, T/C (second compound 1 µM, first compound 3.16 µM): 5.13%
- viability, T/C (second compound 1 µM, first compound 10 µM): 3.9%
- viability, T/C (second compound 3.16 µM, first compound 0.0316 µM): 2.27%
- viability, T/C (second compound 3.16 µM, first compound 0.1 µM): 3.77%
- viability, T/C (second compound 3.16 µM, first compound 0.316 µM): 2.71%
- viability, T/C (second compound 3.16 µM, first compound 1 µM): 3.9%
- viability, T/C (second compound 3.16 µM, first compound 3.16 µM): 3.24%
- viability, T/C (second compound 3.16 µM, first compound 10 µM): 5.64%
- viability, T/C (second compound 10 µM, first compound 0.0316 µM): 1.34%
- viability, T/C (second compound 10 µM, first compound 0.1 µM): 4.22%
- viability, T/C (second compound 10 µM, first compound 0.316 µM): 2.17%
- viability, T/C (second compound 10 µM, first compound 1 µM): 3.01%
- viability, T/C (second compound 10 µM, first compound 3.16 µM): 4.86%
- viability, T/C (second compound 10 µM, first compound 10 µM): 6.03%
